Experimental data as given in ChEMBL document CHEMBL5726119, “Macrocyclic compounds as IRAK4 inhibitors for the treatment of inflammatory diseases” (2017).

Target: T1, Interleukin-1 receptor-associated kinase 4 (Homo sapiens, UniProt Q9NWZ3)
T1 sequence (Q9NWZ3 whole entry): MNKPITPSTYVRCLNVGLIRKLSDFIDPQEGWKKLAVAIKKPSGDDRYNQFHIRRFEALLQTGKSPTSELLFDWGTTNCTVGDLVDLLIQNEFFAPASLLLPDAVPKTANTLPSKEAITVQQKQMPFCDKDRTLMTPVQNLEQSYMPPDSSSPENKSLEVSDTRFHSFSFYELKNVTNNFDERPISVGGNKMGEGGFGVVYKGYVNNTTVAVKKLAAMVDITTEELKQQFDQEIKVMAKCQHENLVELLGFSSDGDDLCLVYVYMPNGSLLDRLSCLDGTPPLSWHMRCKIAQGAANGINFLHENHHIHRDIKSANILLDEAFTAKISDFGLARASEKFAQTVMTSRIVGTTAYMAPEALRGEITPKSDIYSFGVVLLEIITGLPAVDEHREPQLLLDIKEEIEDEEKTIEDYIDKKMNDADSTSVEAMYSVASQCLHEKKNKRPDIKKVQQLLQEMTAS
Experiment: Biochemical Assay: The biochemical assay is in a AlphaScreen format. The kinase reaction is based on the IRAK-4 phosphorylation of a biotin labeled peptide. The phosphopeptide is incubated with anti-phosphothreonine antibody as well as streptavidin- and protein A-coated beads. Binding of the protein-A coated beads to the antibody and the streptavidin beads to the peptide, leads to an energy transfer from one bead to the other, ultimately producing a luminescent/fluorescent signal.Generally, the kinase reaction is carried out at 1 nM IRAK4, 1.6 μM peptide, 10 μM ATP in reaction buffer 50 mM Hepes, 60 mM NaCl, 5 mM MgCl2, 0.25 mM MnCl2, 2 mM DTT, 0.01% BSA, 0.01% Tween-20) for 3.5 h at RT.

IC50 [µM] | SMILES
< 10 | CC(C)C1NC(=O)c2nn(C3CCOCC3)cc2NC(=O)c2csc(n2)-c2ccnc(c2)CCCNC1=O (stereo not given)
< 10 | Cn1cc2c(n1)C(=O)NCCOCCOc1cc(ccn1)-c1cncc(c1)C(=O)N2
< 0.1 | Cn1cc2c(n1)C(=O)NCCOCCOc1cc(ccn1)-c1cc(cs1)C(=O)N2

The remaining lines, values behind:

SMILES | IC50 [µM]
Cn1cc2c(n1)C(=O)NCCOCCOc1cc(ccn1)-c1cc(ccn1)C(=O)N2 | < 1
O=C1NCCCOC2CCCC(CNc3cc(ccn3)-c3nc1cs3)C2 (stereo not given) | > 10
